Test results reported in ChEMBL document CHEMBL1201862, “PubChem BioAssay data set” (2004).
Calls of active or inactive are those of the source.

Assays:
[1] = luciferase reporter signal suppression in cells – H4 neuroglioma cells, luminescence, dose response (AID 1990); format: functional, cell-based
[2] = Luminescence Cell-Based Dose Response HTS to Identify Inhibitors of 5'UTR Stem-Loop Driven Prion Protein mRNA Translation in H4 Neuroglioblastoma Cells. [Related pubchem assays: 1827 (Project Summary), 1813 (Primary HTS)]; format: functional
[3] = tested on: INS1; test: INS-1E survival protection against cytokine death – cell-based, luminescence, retest, dose response (AID 449756); format: functional; settings: Rattus norvegicus;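 also: cell death triggered by IL-1 beta plus TNF-alpha plus IFN-gamma mixture; protective hits raise ATP signal compared with cytokine alone wells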
[4] = alpha-synuclein stem-loop luciferase translation blockers – H4 neuroglioma cells, luminescence, confirmation (AID 1988); format: functional, cell-based
[5] = biological target: Cytochrome P450 2C9 (Homo sapiens, UniProt P11712)
Sequence of Cytochrome P450 2C9 (P11712 whole entry): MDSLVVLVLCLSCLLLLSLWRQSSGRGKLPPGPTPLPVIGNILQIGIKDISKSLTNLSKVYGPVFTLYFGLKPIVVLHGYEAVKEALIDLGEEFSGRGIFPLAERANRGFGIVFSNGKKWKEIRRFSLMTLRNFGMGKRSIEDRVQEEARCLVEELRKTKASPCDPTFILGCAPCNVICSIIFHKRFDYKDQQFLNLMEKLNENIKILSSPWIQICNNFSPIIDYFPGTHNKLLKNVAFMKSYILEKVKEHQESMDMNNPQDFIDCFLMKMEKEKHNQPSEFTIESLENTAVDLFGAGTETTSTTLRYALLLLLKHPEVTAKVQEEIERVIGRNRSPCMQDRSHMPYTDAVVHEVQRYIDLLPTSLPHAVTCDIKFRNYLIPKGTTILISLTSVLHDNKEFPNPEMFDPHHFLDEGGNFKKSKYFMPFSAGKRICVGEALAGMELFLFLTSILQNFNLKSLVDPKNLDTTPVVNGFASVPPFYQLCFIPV

[6] = biological target: Cytochrome P450 2D6 (Homo sapiens, UniProt P10635);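 also: CYP2D6 member of a cytochrome P450 panel assay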
Sequence of Cytochrome P450 2D6 (P10635 whole entry): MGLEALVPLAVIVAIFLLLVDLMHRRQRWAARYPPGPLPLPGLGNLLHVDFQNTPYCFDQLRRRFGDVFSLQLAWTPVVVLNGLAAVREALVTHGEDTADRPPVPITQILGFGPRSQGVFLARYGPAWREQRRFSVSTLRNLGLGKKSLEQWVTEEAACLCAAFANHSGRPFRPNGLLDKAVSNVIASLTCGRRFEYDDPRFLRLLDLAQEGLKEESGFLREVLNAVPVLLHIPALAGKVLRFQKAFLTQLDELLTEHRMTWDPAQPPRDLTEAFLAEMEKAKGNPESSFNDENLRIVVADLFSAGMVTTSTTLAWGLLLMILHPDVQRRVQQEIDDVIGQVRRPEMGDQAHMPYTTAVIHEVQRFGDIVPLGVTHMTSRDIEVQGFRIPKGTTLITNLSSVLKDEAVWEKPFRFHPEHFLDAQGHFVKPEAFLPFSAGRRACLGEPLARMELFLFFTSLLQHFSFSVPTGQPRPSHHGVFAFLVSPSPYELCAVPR

[7] = biological target: T1, Fatty acid synthase (Homo sapiens, UniProt P49327); test: inhibition of human FAS-TE enzyme activity – biochemical, kinetic fluorescence intensity, dose response (AID 624326); format: functional;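 also: rate of fluorescence rise from hydrolysis of a fluorogenic O-methyl fluorescein ester substrate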
T1 sequence (P49327 whole entry): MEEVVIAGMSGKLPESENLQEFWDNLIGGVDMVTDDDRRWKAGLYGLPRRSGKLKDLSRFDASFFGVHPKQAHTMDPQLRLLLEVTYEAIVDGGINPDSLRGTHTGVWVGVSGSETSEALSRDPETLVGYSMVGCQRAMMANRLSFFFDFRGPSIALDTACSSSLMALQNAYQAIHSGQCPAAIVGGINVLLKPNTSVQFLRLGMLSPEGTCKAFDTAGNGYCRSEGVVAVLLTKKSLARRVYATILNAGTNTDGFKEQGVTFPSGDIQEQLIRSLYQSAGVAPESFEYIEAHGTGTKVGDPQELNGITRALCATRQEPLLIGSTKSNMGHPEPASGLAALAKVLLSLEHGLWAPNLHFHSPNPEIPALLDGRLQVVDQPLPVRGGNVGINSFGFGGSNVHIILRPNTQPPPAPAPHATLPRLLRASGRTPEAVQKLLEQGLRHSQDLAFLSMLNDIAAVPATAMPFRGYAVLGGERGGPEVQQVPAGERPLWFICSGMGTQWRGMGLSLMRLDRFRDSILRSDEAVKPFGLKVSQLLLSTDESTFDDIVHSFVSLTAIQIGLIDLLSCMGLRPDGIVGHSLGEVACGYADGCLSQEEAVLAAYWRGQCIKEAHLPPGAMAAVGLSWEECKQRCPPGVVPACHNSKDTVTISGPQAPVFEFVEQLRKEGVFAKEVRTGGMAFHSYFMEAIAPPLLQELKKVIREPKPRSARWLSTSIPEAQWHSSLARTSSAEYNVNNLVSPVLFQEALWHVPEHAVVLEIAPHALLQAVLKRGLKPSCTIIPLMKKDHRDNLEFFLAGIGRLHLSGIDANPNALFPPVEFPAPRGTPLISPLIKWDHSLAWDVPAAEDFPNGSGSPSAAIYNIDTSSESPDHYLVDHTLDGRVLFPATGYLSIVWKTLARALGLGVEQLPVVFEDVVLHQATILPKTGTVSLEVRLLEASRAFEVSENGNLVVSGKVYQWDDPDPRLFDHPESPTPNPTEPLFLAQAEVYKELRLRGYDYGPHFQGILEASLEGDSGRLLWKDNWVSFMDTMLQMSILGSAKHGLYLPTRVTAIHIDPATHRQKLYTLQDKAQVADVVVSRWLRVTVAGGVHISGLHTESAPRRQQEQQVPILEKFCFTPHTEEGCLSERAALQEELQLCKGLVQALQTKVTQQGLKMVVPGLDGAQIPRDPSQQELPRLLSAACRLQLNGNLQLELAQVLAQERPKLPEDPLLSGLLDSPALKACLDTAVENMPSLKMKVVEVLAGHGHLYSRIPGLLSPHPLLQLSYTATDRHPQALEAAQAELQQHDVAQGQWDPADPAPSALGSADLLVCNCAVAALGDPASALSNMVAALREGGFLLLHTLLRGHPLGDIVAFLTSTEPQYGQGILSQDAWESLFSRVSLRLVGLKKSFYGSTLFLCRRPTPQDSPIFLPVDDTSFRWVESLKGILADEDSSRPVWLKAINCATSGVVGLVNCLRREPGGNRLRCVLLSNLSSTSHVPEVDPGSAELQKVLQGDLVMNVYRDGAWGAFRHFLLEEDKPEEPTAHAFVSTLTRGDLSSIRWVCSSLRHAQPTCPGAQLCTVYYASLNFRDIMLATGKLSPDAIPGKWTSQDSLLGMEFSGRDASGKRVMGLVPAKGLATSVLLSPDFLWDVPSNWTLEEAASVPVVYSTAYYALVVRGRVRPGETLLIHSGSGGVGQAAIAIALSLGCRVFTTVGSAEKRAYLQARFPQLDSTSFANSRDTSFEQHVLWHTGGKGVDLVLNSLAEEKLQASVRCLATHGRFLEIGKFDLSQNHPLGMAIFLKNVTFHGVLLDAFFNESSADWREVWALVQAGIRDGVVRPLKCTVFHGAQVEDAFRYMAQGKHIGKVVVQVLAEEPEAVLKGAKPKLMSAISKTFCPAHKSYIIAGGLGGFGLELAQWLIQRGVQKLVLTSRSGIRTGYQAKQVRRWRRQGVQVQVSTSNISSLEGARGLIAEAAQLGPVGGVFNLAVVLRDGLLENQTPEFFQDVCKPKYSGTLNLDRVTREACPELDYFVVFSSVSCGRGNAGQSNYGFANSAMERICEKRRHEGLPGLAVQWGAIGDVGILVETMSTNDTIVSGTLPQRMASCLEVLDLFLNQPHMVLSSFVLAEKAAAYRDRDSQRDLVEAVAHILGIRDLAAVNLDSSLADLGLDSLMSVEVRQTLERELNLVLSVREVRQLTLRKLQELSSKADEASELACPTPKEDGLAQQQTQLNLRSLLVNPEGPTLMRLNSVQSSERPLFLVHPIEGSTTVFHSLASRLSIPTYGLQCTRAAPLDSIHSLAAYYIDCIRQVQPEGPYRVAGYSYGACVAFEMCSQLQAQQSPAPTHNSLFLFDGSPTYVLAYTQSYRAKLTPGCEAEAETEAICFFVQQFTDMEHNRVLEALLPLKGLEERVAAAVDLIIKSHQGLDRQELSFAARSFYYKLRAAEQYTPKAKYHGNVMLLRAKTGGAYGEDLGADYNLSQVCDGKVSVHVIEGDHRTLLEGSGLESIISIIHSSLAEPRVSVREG

[8] = biological target: T1, Fatty acid synthase; test: inhibition of human FAS-TE enzyme activity – biochemical, endpoint fluorescence intensity, uHTS hits, dose response (AID 624327); format: functional;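 also: fluorescence from hydrolysis of an O-methyl fluorescein acyl ester substrate by the enzyme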
[9] = biological target: Cytochrome P450 3A4 (Homo sapiens, UniProt P08684);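 also: CYP3A4 tested as one member of a cytochrome P450 panel screen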
Sequence of Cytochrome P450 3A4 (P08684 whole entry): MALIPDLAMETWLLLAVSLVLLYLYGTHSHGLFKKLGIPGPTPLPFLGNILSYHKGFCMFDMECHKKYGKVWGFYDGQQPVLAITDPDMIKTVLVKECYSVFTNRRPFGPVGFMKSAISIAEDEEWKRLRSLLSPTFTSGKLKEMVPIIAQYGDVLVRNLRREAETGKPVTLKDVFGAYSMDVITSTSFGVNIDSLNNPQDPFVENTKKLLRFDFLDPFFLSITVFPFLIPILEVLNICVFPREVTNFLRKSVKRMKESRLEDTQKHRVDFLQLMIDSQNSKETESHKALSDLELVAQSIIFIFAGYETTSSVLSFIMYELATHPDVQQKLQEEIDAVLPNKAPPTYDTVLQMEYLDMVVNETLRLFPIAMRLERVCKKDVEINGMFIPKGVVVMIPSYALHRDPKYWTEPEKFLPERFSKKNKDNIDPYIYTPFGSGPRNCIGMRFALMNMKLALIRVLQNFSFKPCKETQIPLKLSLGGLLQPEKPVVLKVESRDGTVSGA

[10] = tested on: H9c2; test: cells; format: functional, cell-based; settings: Rattus norvegicus, H9c2, Myocardium;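 also: confirmatory concentration-response retest of ultra-high-throughput screening hits for modulation of myocardial damage; cell death induced by hydrogen peroxide oxidative stress; compound pretreatment for 60 min then peroxide exposure for 2 h; potency is for protecting the cells against peroxide damage rather than for killing them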
[11] = viability of uninfected HEp-2 cells – cell-based, HTS, cytotoxicity control for RSV inhibitor project, dose response (AID 2410); format: functional; settings: human respiratory syncytial virus
[12] = biological target: T2, Streptokinase A (Streptococcus pyogenes serotype M1, UniProt P10520); test: viability-normalized secreted streptokinase activity reduction – plasminogen activation absorbance, OD405, dose response (AID 1914); format: functional, Streptococcus pyogenes M1 GAS;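 also: secreted streptokinase activity via plasminogen activation per viability signal from cell pellet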
T2 sequence (P10520 whole entry): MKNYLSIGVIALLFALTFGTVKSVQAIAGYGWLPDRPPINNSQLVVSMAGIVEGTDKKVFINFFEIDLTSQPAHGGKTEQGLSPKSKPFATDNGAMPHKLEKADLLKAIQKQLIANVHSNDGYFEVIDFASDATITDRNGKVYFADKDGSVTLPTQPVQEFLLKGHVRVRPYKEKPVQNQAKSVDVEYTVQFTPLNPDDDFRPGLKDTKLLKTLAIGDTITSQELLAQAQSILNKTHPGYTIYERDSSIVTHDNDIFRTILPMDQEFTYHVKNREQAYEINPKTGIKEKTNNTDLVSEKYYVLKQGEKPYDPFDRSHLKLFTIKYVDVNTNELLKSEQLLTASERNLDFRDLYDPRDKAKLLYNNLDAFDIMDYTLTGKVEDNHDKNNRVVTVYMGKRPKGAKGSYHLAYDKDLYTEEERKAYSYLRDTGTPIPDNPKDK

[13] = tested on: Streptococcus sp. 'group A'; test: Streptococcus pyogenes SK(-)GAS viability under kanamycin – luminescence, BacTiterGlo, confirmation, counter-screen for streptokinase expression inhibitor project, dose response (AID 1900); format: functional, organism-based
[14] = tested on: Streptococcus; test: GAS UMAA2166 growth inhibition – luminescence, BacTiterGlo, counter-screen for streptokinase expression inhibitor project, dose response (AID 1915); format: functional, organism-based;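 also: potency for reduction of bacterial viability or growth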
[15] = reduction of Shn3 3'UTR-driven luciferase in osteoblasts – cell-based, Clone20 osteoblasts, firefly luciferase, cherry-picked, dose response (AID 624132); format: functional;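 also: firefly luciferase luminescence from reporter carrying the Shn3 3'UTR in osteoblasts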
[16] = non-specific 3'UTR reporter inhibition in Clone20-Shn3RL – cell-based, Renilla luciferase, cherry-picked, counter-screen for Shn3 inhibitor project, dose response (AID 624133); format: functional
[17] = biological target: T3, Protein RecA (Mycobacterium tuberculosis, UniProt P9WHJ3); test: Fluorescence Cell-Free Homogeneous Dose Retest to Identify Inhibitors of RecA-Intein Splicing Activity. [Related pubchem assays (depositor defined):AID2097, AID2223, AID489010, AID492950]; format: functional
T3 sequence (P9WHJ3 whole entry): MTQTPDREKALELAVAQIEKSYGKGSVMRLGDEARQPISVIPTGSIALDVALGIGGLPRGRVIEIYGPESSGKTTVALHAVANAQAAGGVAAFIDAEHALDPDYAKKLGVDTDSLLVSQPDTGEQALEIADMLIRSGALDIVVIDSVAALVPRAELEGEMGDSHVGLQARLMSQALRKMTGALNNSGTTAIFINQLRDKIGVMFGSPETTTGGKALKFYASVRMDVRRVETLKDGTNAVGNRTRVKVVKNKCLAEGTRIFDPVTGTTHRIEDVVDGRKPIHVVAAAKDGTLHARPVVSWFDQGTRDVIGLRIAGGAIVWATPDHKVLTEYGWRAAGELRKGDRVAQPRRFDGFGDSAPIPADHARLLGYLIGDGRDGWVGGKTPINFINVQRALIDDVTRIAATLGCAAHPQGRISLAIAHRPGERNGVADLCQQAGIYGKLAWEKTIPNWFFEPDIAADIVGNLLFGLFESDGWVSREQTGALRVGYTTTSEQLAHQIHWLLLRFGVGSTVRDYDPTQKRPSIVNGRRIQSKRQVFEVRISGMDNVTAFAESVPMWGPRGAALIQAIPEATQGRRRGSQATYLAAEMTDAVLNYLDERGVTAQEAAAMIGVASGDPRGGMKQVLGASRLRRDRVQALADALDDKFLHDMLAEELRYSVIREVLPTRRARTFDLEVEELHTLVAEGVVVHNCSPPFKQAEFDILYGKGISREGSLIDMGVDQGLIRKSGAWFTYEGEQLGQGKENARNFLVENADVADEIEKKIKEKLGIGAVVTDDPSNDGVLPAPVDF

Structure (SMILES): FC(F)(F)c1nc2ccccc2n2c(-c3ccc(Cl)cc3)nnc12
- EC50 [1]: 9.07 µM (active)
- EC50 [2]: 9.21 µM (active)
- AC50 [3]: 6.4 µM (active)
- EC50 [4]: 8.92 µM (active)

Structure (SMILES): C=CCN(CC=C)C(=O)C(=O)c1cc(C)n(-c2ccc([N+](=O)[O-])cc2)c1C
- AC50 [5]: 15.8 µM (inconclusive)
- AC50 [6]: 3.98 µM (inconclusive)

Structure (SMILES): CCN1C(=O)[C@H]2[C@@H](c3ccc(C)cc3)N3C(=O)N(c4cccc(Cl)c4)C(=O)[C@@]3(Cc3ccc(Cl)cc3)[C@H]2C1=O
- IC50 [7]: 16.1 µM (active)
- IC50 [8]: 12 µM (active)

Structure (SMILES): COc1ccc(-c2nn(-c3ccccc3)cc2C(=O)OCC(=O)c2ccc(C)c([N+](=O)[O-])c2)cc1
- AC50 [3]: 0.97 µM (active)

Structure (SMILES): Cc1c(N2CCCC2)cc2c(c1NC(=O)c1ccccc1Cl)C(C)(C)CC2(C)C
- AC50 [6]: 3.16 µM (inconclusive)
- AC50 [9]: 0.631 µM (inconclusive)

Structure (SMILES): COc1cccc(-c2nnc3sc(-c4ccccn4)nn23)c1
- IC50 [10]: > 79 µM (inactive)

Structure (SMILES): Oc1nc2c(c3c1CCCC3)CCCC2
- IC50 [10]: > 79 µM (inactive)

Structure (SMILES): CC1CN(c2ccc([N+](=O)[O-])cc2C#N)CC(C)O1 (stereo not given)
- CC50 [11]: 34.9 µM (active)

Structure (SMILES): O=C(COC(=O)c1cc(-c2cccnc2)nc2ccccc12)Nc1ccc(F)cc1F
- IC50 [10]: 13.8 µM (active)

Structure (SMILES): Cc1cccc(NC(=O)c2cc(-c3ccco3)nc3ccccc23)n1
- IC50 [10]: > 79 µM (inactive)

Structure (SMILES): O=C(NC(=S)N1CCN(C(c2ccccc2)c2ccccc2)CC1)c1ccc(S(=O)(=O)N2CCOCC2)cc1
- EC50 [12]: > 150 µM (not active)
- EC50 [13]: 1.14 µM (active)
- EC50 [14]: 108 µM (active)

Structure (SMILES): CC(C)(C)c1ccc(Cn2ccc(-c3ccc4c(c3)OCO4)n2)cc1
- EC50 [12]: > 150 µM (not active)
- EC50 [13]: 9.62 µM (active)
- EC50 [14]: 79.9 µM (active)

Structure (SMILES): CCn1c(SCC(=O)Nc2ncc(C(F)(F)F)cc2Cl)nnc1-c1cccc(C)c1
- IC50 [7]: 3.94 µM (active)
- IC50 [8]: 3.66 µM (active)

Structure (SMILES): CC[C@@]12C(=O)N(c3cccc(Br)c3)C(=O)N1[C@H](c1ccc(F)cc1)[C@@H]1C(=O)N(C3CCCCC3)C(=O)[C@@H]12
- CC50 [11]: 41.1 µM (active)

Structure (SMILES): O=C(NCc1ccc2c(c1)OCO2)c1cc([N+](=O)[O-])ccc1N1CCCCC1
- IC50 [7]: 5.03 µM (active)
- IC50 [8]: 10.5 µM (active)

Structure (SMILES): CC(C)(C)C(=O)N1N=C(c2ccc(NS(C)(=O)=O)cc2)CC1c1cccs1 (stereo not given)
- EC50 [12]: > 150 µM (not active)
- EC50 [13]: 6.62 µM (active)
- EC50 [14]: 12.4 µM (active)

Structure (SMILES): COc1ccc(-c2[nH]c(-c3ccc(C)cc3)nc2SCC(=O)NC2CCCC2)cc1
- CC50 [11]: 38.9 µM (active)

Structure (SMILES): Cc1cc(C)n(-c2nc(NCCO)c3c4c(sc3n2)CCCC4)n1
- AC50 [3]: 5.3 µM (active)

Structure (SMILES): O=C(CSc1ccc(-c2ccc(Cl)cc2)nn1)NC1CCCC1
- EC50 [12]: > 150 µM (not active)
- EC50 [13]: > 150 µM (not active)
- EC50 [14]: > 150 µM (not active)

Structure (SMILES): COc1ccccc1NC(=O)CSc1ccc2nnc(-c3ccc(C)cc3)n2n1
- IC50 [10]: > 79 µM (inactive)

Structure (SMILES): COc1cc(OC)c(NC(=O)c2sc3ncn(CC(=O)N4CCN(c5ccccn5)CC4)c(=O)c3c2C)cc1Cl
- EC50 [12]: > 150 µM (not active)
- EC50 [13]: 11.6 µM (active)
- EC50 [14]: 86.6 µM (active)

Structure (SMILES): CCOC(=O)N1CCC(n2c(SCC(=O)N3CCC(C)CC3)nc3ccccc3c2=O)CC1
- IC50 [10]: > 79 µM (inactive)

Structure (SMILES): O=C(/C=C/c1cccs1)c1cc(Br)ccc1OC(=O)N1CCOCC1
- CC50 [11]: 18.7 µM (active)

Structure (SMILES): CCc1ccc(/C=C2\SC(N3CCCC3)=NC2=O)cc1
- CC50 [11]: > 50 µM (active)

Structure (SMILES): Cc1[nH]c2ccccc2c1N=Nc1ccc(F)cc1
- CC50 [11]: 17.2 µM (active)

Structure (SMILES): C[C@@H](C(=O)Nc1ccc2ccccc2c1)[C@H]1C[C@]1(C)[C@H](NS(=O)(=O)c1ccccc1)c1ccccc1
- CC50 [11]: 36.4 µM (active)

Structure (SMILES): COc1cc(CCNc2ccc3nnc(-c4ccccc4)n3n2)cc(OC)c1OC
- IC50 [10]: > 79 µM (inactive)

Structure (SMILES): CCOc1ccc(NC(=O)CN(c2ccc([N+](=O)[O-])cc2)S(=O)(=O)c2ccccc2)cc1
- IC50 [7]: 7.65 µM (active)
- IC50 [8]: 10.5 µM (active)

Structure (SMILES): COc1ccc(/C=C/C(=O)c2ccccc2O)cc1CN1CCOCC1
- IC50 [10]: > 79 µM (inactive)

Structure (SMILES): COc1ccc([N+](=O)[O-])cc1NC(=O)c1ccc(N(Cc2ccccc2C)S(C)(=O)=O)cc1
- IC50 [7]: 6.91 µM (active)
- IC50 [8]: 9.88 µM (active)

Structure (SMILES): Cc1ccc2nc(-c3ccccc3)cc(C(=O)NNC(=O)c3csc(N4CCOCC4)n3)c2c1
- IC50 [10]: > 79 µM (inactive)

Structure (SMILES): CCCC(=O)Nc1sc2c(c1C(=O)OC)C(C(=O)OC)CC2 (stereo not given)
- CC50 [11]: 31.6 µM (active)

Structure (SMILES): CCC(=O)Nc1ccc(Nc2nc(C)c([N+](=O)[O-])c(Nc3ccc(NC(=O)CC)cc3)n2)cc1
- EC50 [12]: > 150 µM (not active)
- EC50 [13]: 0.487 µM (active)
- EC50 [14]: 49.3 µM (active)

Structure (SMILES): CCOC(=O)C1CCN(C(=O)c2ccc(OCC(=O)Nc3cccc(C(F)(F)F)c3)c(OC)c2)CC1
- AC50 [15]: 1.75 µM (active)
- AC50 [16]: 4.69 µM (active)

Structure (SMILES): O=C(Cc1ccc(S(=O)(=O)N2CCOCC2)s1)N1CCN(S(=O)(=O)c2ccccc2[N+](=O)[O-])CC1
- IC50 [7]: 3.36 µM (active)
- IC50 [8]: 0.241 µM (active)

Structure (SMILES): CC(=O)c1c(C)n(-c2cccc(Cl)c2)c2ccc(O)cc12
- IC50 [10]: 10.4 µM (active)

Structure (SMILES): COc1ccc(C(C(=O)NCc2ccccc2)N(Cc2ccco2)C(=O)c2snc(C(N)=O)c2N)cc1 (stereo not given)
- IC50 [10]: > 79 µM (inactive)

Structure (SMILES): COc1ccc(/C=N/NC(=O)c2cc(C(C)(C)C)[nH]n2)cc1COc1ccc(F)cc1F
- EC50 [12]: > 150 µM (not active)
- EC50 [13]: 6.95 µM (active)
- EC50 [14]: 11.7 µM (active)

Structure (SMILES): CCOC(=O)c1ccc(NC(=O)CC2SC(N/N=C/c3c[nH]c4ccccc34)=NC2=O)cc1 (stereo not given)
- EC50 [12]: > 150 µM (not active)
- EC50 [13]: 3.35 µM (active)
- EC50 [14]: > 150 µM (not active)

Structure (SMILES): Cc1[nH]c2ccccc2c1/C=N/NC(=O)c1cc(-c2cccs2)[nH]n1
- IC50 [10]: > 79 µM (inactive)

Structure (SMILES): CCN(CC)C(=O)C1=C(C)N(Cc2ccc(F)cc2)C(=O)C(CC(=O)NC(c2ccccc2)c2ccccc2)C1 (stereo not given)
- IC50 [7]: 7.98 µM (active)
- IC50 [8]: 9.6 µM (active)

Structure (SMILES): Fc1c(F)c(F)c(N/N=C/c2c[nH]c3ccccc23)c(F)c1F
- IC50 [7]: 12.4 µM (active)
- IC50 [8]: 11.5 µM (active)

Structure (SMILES): Cc1ccccc1/N=C1\C(Cl)=C(O)OC1OC(=O)c1ccco1 (stereo not given)
- IC50 [7]: 4.35 µM (active)
- IC50 [8]: 3.24 µM (active)
- EC50 [17]: 11.4 µM (active)
